Columns and labels:
[1] = system: peritoneal macrophages derived from MyD88 KO mice; format: cell-based, MyD88 KO mice (C57BL6 background)
peritoneal macrophages [2] = format: cell-based, C57BL6 mice
[3] = system: peritoneal macrophages derived from MyD88 KO mice; format: cell-based, MyD88 KO mice (C57BL6 background); remark: listed apart in the source
peritoneal macrophages [4] = format: cell-based, C57BL6 mice; remark: listed apart in the source
[5] = system: peritoneal macrophages from TLR9 KO mice; format: cell-based

For “5′-CTGCCACGTTCTCCTGCA*C*C*-3′ [nuclease resistant EN101]”, the “number of MAC-1 positive cells” value [1] was “reduced significantly”, the “MIP-2 secretion from PMs” value (peritoneal macrophages [2]) was “inhibited” and the “levels of MIP-2 in the supernatants of PM” value (peritoneal macrophages [2]) was “strongly elevated”. For the same substance, the “secretion of IL-6 from activated PMs” value (peritoneal macrophages [2]) was “did not induce secretion”, the “secretion of TNF-α from activated PMs” value (peritoneal macrophages [2]) was “did not induce secretion” and the “effect on MIP-2 levels in the supernatants of PMs” value [3] was “almost totally inhibited”. For the same substance, the “number of MAC-1 positive cells” value (peritoneal macrophages [4]) was “minor effect”, the “survival/proliferation of total and activated peritoneal macrophages” value (peritoneal macrophages [4]; 72 hr) was “inhibited” and the “number of total and MAC-1 positive cells” value [5] was “reduced significantly”.

— US20090275634A1 (priority 2006, published 2009)
